# Reference: PubChem BioAssay (NCI)
# Several values for one entry are separate records, joined by “and”; a condition that tells them apart may be missing. Identical values can stand only once.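 Protocol summary: plate cells (96-well), add compound at 5 concentrations, incubate 48 h, interpolate endpoints linearly. At the GI50, growth is halved. At the TGI there is no net growth.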
# Key:
# Experiment in all cases: inhibition of tumour cell growth, NCI panel, 48 h
# LXFL 529 NSCLC = tested on: LXFL 529 NSCLC
# SK-MEL-28 melanoma = tested on: SK-MEL-28 melanoma
# SNB-75 CNS = tested on: SNB-75 CNS
# UACC-62 melanoma = tested on: UACC-62 melanoma
# NCI-H522 lung = tested on: NCI-H522 lung
# CCRF-CEM leukemia = tested on: CCRF-CEM leukemia
# DMS 273 small cell lung = tested on: DMS 273 small cell lung
# HOP-92 NSCLC = tested on: HOP-92 NSCLC
# LOX IMVI melanoma = tested on: LOX IMVI melanoma
# NCI-H460 lung = tested on: NCI-H460 lung
# SF-295 CNS = tested on: SF-295 CNS
# OVCAR-3 ovarian = tested on: OVCAR-3 ovarian
# MOLT-4 leukemia = tested on: MOLT-4 leukemia
# KM12 colon = tested on: KM12 colon
# SK-MEL-2 melanoma = tested on: SK-MEL-2 melanoma
# A498 renal = tested on: A498 renal
# HT29 colon = tested on: HT29 colon
# U251 CNS = tested on: U251 CNS
# 786-0 renal = tested on: 786-0 renal
# NCI-H226 lung = tested on: NCI-H226 lung
# ACHN renal = tested on: ACHN renal
# RXF-631 renal = tested on: RXF-631 renal
# SNB-19 CNS = tested on: SNB-19 CNS
# SF-539 CNS = tested on: SF-539 CNS
# HL-60(TB) leukemia = tested on: HL-60(TB) leukemia
# K-562 leukemia = tested on: K-562 leukemia
# SN12C renal = tested on: SN12C renal
# EKVX NSCLC = tested on: EKVX NSCLC
smiles,measurement,setting,value
COC(C)(C)[C@H](O)C(O)CC(C)[C@@H]1CCC23CC12CCC1[C@@]2(C)CCC(OC(C)=O)C(C)(C)C2CC(OC2OC(COC(C)=O)C(O)C(O)C2O)[C@]13C (stereo partly drawn),GI50,LXFL 529 NSCLC,6.23 µM
same,TGI,LXFL 529 NSCLC,12.8 µM and 19.2 µM
same,GI50,SK-MEL-28 melanoma,5.41 µM
same,TGI,SK-MEL-28 melanoma,12.2 µM and 18.9 µM
same,GI50,SNB-75 CNS,4.32 µM
same,TGI,SNB-75 CNS,11.3 µM and 17.1 µM
same,GI50,UACC-62 melanoma,6.28 µM
same,TGI,UACC-62 melanoma,9.47 µM and 19.2 µM
same,GI50,NCI-H522 lung,3.85 µM
same,TGI,NCI-H522 lung,6.72 µM and 17.7 µM
same,GI50,CCRF-CEM leukemia,4.08 µM
same,TGI,CCRF-CEM leukemia,9.67 µM and 17.3 µM
same,GI50,DMS 273 small cell lung,7.7 µM
same,TGI,DMS 273 small cell lung,10.2 µM and 23.4 µM
same,GI50,HOP-92 NSCLC,4.37 µM
same,TGI,HOP-92 NSCLC,11.6 µM and 16.9 µM
same,GI50,LOX IMVI melanoma,4.04 µM
same,TGI,LOX IMVI melanoma,9.97 µM and 15.9 µM
same,GI50,NCI-H460 lung,4.69 µM
same,TGI,NCI-H460 lung,10.3 µM and 14.7 µM
same,GI50,SF-295 CNS,2.17 µM
same,TGI,SF-295 CNS,10.1 µM and 7.53 µM
same,GI50,OVCAR-3 ovarian,4.26 µM
same,TGI,OVCAR-3 ovarian,10.8 µM and 15.9 µM
same,GI50,MOLT-4 leukemia,0.00625 µM
same,TGI,MOLT-4 leukemia,26.7 µM and 15.8 µM
same,GI50,KM12 colon,4.23 µM
same,TGI,KM12 colon,7.55 µM and 14.1 µM
same,GI50,SK-MEL-2 melanoma,4.34 µM
same,TGI,SK-MEL-2 melanoma,17.6 µM and 14.8 µM
same,GI50,A498 renal,17 µM
same,TGI,A498 renal,18.7 µM and 34.7 µM
same,GI50,HT29 colon,1.83 µM
same,TGI,HT29 colon,2.49 µM and 3.67 µM
same,GI50,U251 CNS,5.3 µM
same,TGI,U251 CNS,9.64 µM and 17.7 µM
same,GI50,786-0 renal,11.5 µM
same,TGI,786-0 renal,15 µM and 25.2 µM
same,TGI,NCI-H226 lung,16.9 µM
same,GI50,ACHN renal,6.08 µM
same,TGI,ACHN renal,11.4 µM and 20 µM
same,TGI,RXF-631 renal,12.8 µM
same,TGI,SNB-19 CNS,14.5 µM and 20 µM
same,GI50,SF-539 CNS,5.66 µM
same,TGI,SF-539 CNS,9.41 µM and 17.2 µM
same,GI50,HL-60(TB) leukemia,2.55 µM
same,TGI,HL-60(TB) leukemia,3.09 µM and 6.18 µM
same,GI50,K-562 leukemia,4.68 µM
same,TGI,K-562 leukemia,10.6 µM and 21.4 µM
same,GI50,SN12C renal,6.29 µM
same,TGI,SN12C renal,10.6 µM and 19.4 µM
same,GI50,EKVX NSCLC,10.9 µM
same,TGI,EKVX NSCLC,15.4 µM and 24.7 µM
